Test results taken from patent US9035056B2, “Pyrido[4,3-b]indole and pyrido[3,4-b]indole derivatives and methods of use” (Medivation Technologies, Inc., priority 2011, dated 2015).

How the values were obtained:
[1] = molecular target: T1, human recombinant histamine H1 receptor (Homo sapiens, UniProt P35367); assay: Histamine H1 radioligand binding ([3H]Pyrilamine); conditions: 0.1 μM compound; for inhibition at 0.1 µM: read-out: Binding data (Percentage inhibition) Histamine H1 (0.1 μM)
T1 construct: expressed in transfected cells; host or cells: CHO-K1
Protocol: To evaluate in radioligand binding assays the activity of compounds of the invention, human recombinant histamine H1 receptor expressed in Chinese hamster ovary (CHO) K1 cells (De Backer, M. et al, Biochem. Biophys. Res. Comm. 197(3):1601, 1993) in a modified Tris-HCl buffer (50 mM Tris-HCl, pH 7.4, 2 mM MgCl2, 100 mM NaCl, 250 mM Sucrose) was used. Compounds of the invention were incubated with 1.2 nM [^3H]Pyrilamine for 180 min at 25° C. Non-specific binding was estimated in the presence of 1 μM Pyrilamine. Receptor proteins were filtered and washed, the filters were then counted to determine [^3H]Pyrilamine specifically bound. Compounds were screened at 1 μM or lower, using 1% DMSO as vehicle. Biochemical assay results are presented as the percent inhibition of specific binding in Table 3.

[2] = molecular target: T2, human recombinant adrenergic α2A receptor (Homo sapiens, UniProt P08913); assay: Adrenergic α2A radioligand binding ([3H]MK-912); conditions: 0.1 μM compound; for inhibition at 0.1 µM: read-out: Percentage inhibition of ligand binding, Adrenergic α2A; for Percentage inhibition of ligand binding, Adrenergic α2A: 0.1 µM
T2 construct: expressed in transfected cells; host or cells: insect Sf9 cells
T2 sequence (P08913 1-465): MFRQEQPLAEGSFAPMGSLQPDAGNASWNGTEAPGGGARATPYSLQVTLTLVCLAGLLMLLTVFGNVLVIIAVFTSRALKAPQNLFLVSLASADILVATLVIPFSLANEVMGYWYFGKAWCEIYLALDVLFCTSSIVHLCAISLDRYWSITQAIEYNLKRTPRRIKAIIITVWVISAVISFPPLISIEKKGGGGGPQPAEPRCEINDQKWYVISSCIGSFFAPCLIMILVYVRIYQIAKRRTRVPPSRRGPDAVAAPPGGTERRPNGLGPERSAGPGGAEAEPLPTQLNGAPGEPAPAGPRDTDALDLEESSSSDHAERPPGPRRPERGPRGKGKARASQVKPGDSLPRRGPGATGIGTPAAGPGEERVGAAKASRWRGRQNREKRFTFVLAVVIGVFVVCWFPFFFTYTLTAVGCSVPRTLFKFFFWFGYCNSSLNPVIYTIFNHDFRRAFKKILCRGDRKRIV
Protocol: To evaluate in radioligand binding assays the activity of compounds of the invention, human recombinant adrenergic α2A receptor expressed in insect Sf9 cells (Uhlen, S. et al, J. Pharmacol. Exp. Ther. 271:1558, 1994) in a modified Tris-HCl buffer (50 mM Tris-HCl, pH 7.4, 12.5 mM MgCl2, 2 mM EDTA) was used. Compounds of invention were incubated with 1 nM [^3H]MK-912 for 60 min at 25° C. MK-912 is (2S-trans)-1,3,4,5′,6,6′,7,12b-octahydro-1′,3′-dimethyl-spiro[2H-benzofuro[2,3-a]quinolizine-2,4′(1′H)-pyrimidin]-2′(3′H)-one hydrochloride Non-specific binding was estimated in the presence of 10 μM WB-4101 (2-(2,6-Dimethoxyphenoxyethyl)aminomethyl-1,4-benzodioxane hydrochloride). Receptor proteins were filtered and washed, the filters were then counted to determine [^3H]MK-912 specifically bound. Compounds were screened at 1 μM or lower, using 1% DMSO as vehicle. Biochemical assay results are presented as the percent inhibition of specific binding in Table 3.

[3] = molecular target: T3, human recombinant adrenergic α2B receptor (Homo sapiens, UniProt P18089); assay: Adrenergic α2B radioligand binding ([3H]Rauwolscine); conditions: for Percentage inhibition of ligand binding, Adrenergic α2B: 0.03 µM; for inhibition at 0.1 µM: 0.1 μM compound
T3 construct: expressed in transfected cells; host or cells: CHO-K1
T3 sequence (P18089 1-450): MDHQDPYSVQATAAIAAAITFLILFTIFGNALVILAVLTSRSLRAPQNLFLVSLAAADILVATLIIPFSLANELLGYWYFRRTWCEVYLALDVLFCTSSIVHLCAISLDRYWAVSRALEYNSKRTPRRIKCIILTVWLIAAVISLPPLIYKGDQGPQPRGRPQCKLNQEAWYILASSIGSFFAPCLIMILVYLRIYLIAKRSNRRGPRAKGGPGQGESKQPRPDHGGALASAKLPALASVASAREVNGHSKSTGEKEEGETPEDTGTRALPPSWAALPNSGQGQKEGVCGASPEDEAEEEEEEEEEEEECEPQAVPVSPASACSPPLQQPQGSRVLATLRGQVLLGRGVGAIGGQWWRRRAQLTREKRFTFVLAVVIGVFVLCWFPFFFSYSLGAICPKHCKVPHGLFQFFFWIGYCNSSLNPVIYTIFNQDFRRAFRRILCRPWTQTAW
Protocol: To evaluate in radioligand binding assays the activity of compounds of the invention, human recombinant adrenergic α2B receptor expressed in Chinese hamster ovary (CHO) K1 cells (Uhlen, S. et al, Eur. J. Pharmacol. 343(1):93, 1998) in a modified Tris-HCl buffer (50 mM Tris-HCl, pH 7.4, 12.5 mM MgCl2, 1 mM EDTA, 0.2% BSA) was used. Compounds of the invention were incubated with 2.5 nM [^3H]Rauwolscine for 60 min at 25° C. Non-specific binding was estimated in the presence of 10 μM Prazosin. Receptor proteins were filtered and washed, the filters were then counted to determine [^3H]Rauwolscine specifically bound. Compounds were screened at 1 μM or lower, using 1% DMSO as vehicle. Biochemical assay results are presented as the percent inhibition of specific binding in Table 3.

[4] = read-out: Percentage inhibition of ligand binding, Adrenergic α2B

T1 sequence (P35367 whole entry): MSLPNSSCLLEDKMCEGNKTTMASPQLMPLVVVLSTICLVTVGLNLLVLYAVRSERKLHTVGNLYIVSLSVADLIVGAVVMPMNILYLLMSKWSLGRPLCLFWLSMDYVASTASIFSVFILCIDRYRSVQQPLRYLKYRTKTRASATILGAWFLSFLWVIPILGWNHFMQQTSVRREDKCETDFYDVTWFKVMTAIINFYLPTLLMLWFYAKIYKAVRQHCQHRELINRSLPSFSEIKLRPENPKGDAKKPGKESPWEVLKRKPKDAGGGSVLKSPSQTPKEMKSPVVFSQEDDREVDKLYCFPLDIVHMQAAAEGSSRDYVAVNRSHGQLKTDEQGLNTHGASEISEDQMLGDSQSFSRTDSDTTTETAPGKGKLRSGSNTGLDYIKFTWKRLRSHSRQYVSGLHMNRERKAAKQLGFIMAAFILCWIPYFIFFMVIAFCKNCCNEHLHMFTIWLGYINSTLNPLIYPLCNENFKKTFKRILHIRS

| Binding data (Percentage inhibition) Histamine H1 (0.1 μM) [1] [%] | Percentage inhibition of ligand binding, Adrenergic α2B ([3]; 0.03 μM compound) [%] | Percentage inhibition of ligand binding, Adrenergic α2A [2] [%] | inhibition at 0.03 µM ([3]; 0.03 μM compound, read-out: Percentage inhibition of ligand binding, Adrenergic α2B) [%] | Compound | inhibition at 0.1 µM [2] [%] | inhibition at 0.1 µM [1] [%] | inhibition at 0.1 µM [3, 4] [%] |
| --- | --- | --- | --- | --- | --- | --- | --- |
| 4 |  | 15 | 58 | Cc1ccc2c(c1)c1c(n2CC2(O)CCCc3ncccc32)CCN(C)C1 (single isomer, unassigned) [ii-112a] |  |  |  |
| 13 | 40 | 4 |  | Cc1ccc2c(c1)c1c(n2CC2(O)CCCc3ncccc32)CCN(C)C1 (single isomer, unassigned) [ii-112b] |  |  |  |
| 13 | 23 |  |  | Cc1ccc2c(c1)c1c(n2CC2(O)CCCc3ccncc32)CCN(C)C1 (single isomer, unassigned) [ii-113a] | 9 |  |  |

The next lines start with the compound.

| Compound | Binding data (Percentage inhibition) Histamine H1 (0.1 μM) [1] [%] | Percentage inhibition of ligand binding, Adrenergic α2B ([3]; 0.03 μM compound) [%] | Percentage inhibition of ligand binding, Adrenergic α2A [2] [%] | inhibition at 0.03 µM ([3]; 0.03 μM compound, read-out: Percentage inhibition of ligand binding, Adrenergic α2B) [%] | inhibition at 0.1 µM [2] [%] | inhibition at 0.1 µM [1] [%] | inhibition at 0.1 µM [3, 4] [%] |
| --- | --- | --- | --- | --- | --- | --- | --- |
| Cc1ccc2c(c1)c1c(n2CC2(O)CCCc3cnccc32)CCN(C)C1 (single isomer, unassigned) [ii-74a] | 1 | 22 |  |  | 14 |  |  |
| Cc1ccc2c(c1)c1c(n2CC2(O)CCCc3cnccc32)CCN(C)C1 (single isomer, unassigned) [ii-74b] | 11 | 69 | 12 |  |  |  |  |
| Cc1ccc2c(c1)c1c(n2/C=C2/CCCc3ccccc32)CCN(C)C1 [i-2] |  |  |  |  | 98 | 28 | 81 |
| Cc1ccc2c(c1)c1c(n2/C=C2\CCCc3ccccc32)CCN(C)C1 [i-3] |  |  |  |  | 92 | 32 | 57 |
